Where two headings read alike, the source gives them in different places.
Key:
[1] = tested on: HCT-116 cells; assay: Cell cycle analysis with propidium iodide (PI FACS); assay type: cell-based, human; conditions: HCT-116, 24, 48 and 72 hours
Experimental: The percentage of cells in the G1, S and G2/M phases of the cell cycle was determined by staining DNA with propidium iodide and quantifying the number of cells with a 2N or 4N DNA complement by flow cytometry. Alterations in the distribution of cells across the cell cycle in response to exposure to the Cdk inhibitors was evaluated in this marmer.
3 sets of HCT-116 cells (100,000 cells/set) were cultured in the presence of a test compound in T-25 flasks according to Table 1 below. Analysis was performed at 24, 48 and 72 hours. Adherent cells were collected by trypsinization, combined with floating cells in Falcon 12×75 flow cytometric tubes, and harvested by centrifugation. The media was decanted from the cell pellet, 100 μl of PI stain was added and the cells were incubated at 37° C. for 20-25 minutes. The cell count was preferably no greater than 2×10^6-4×10^6/ml. An equal volume (100 μl) of PI salt was then added to the cells, which were then incubated at 4° C. for 1-2 hours. The stained cells were analyzed on a Becton Dickinson FACScan flow cytometer. Samples were protected from light.

[2] = target: T1, Cdk2/cyclin E (Homo sapiens, UniProt P24941); assay: Biochemical kinase assay Cdk2/cyclin E; conditions: Table 6
T1 construct: made in house; host or cells: Sf9 insect cells
Summary of the method: (§1)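 Sf9-expressed Cdk/cyclin heterodimers phosphorylate GST-Rb (residues 379–928, 40 μg) with 50 μM ATP plus [γ-33P]ATP, pH 7.5, 10% DMSO, 15 min at 30 °C. Compounds 1 nM–10 μM. 33P captured on glutathione-sepharose and scintillation-counted; activity relative to DMSO control after EDTA-background subtraction.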

[3] = target: T2, Cdk4/cyclin D1 (Homo sapiens, UniProt P11802); assay: Biochemical kinase assay Cdk4/cyclin D1; conditions: Table 6
T2 construct: made in house; host or cells: Sf9 insect cells
Summary of the method: as §1

[4] = tested on: HCT-116 cells; assay: BrdU incorporation assay; assay type: cell-based; conditions: Homo sapiens, read-out: Brd U, concentration that inhibits BrdU incorporation by 50%
Summary of the method: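 HCT-116 cells were exposed to compound, then analysed at 24, 48 and 72 h; 10 μM BrdU (final) was added for 16-18 h at 37° C. After fixation, permeabilisation and DNase treatment, BrdU incorporation was read by flow cytometry; values are compound concentrations (μM) giving 50% inhibition.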

[5] = target: protein kinase C (mixed isozymes); assay: Protein kinase C TCA precipitation assay; assay type: biochemical, rat; conditions: Table 5; read-out: PKC IC50
Experimental: Enzymes: Cdc2/cyclin B was obtained from commercial sources. Cdk2/his-cyclin Eshort was expressed in Sf9 cells. Cdk2/cyclin A, cdk4/cyclin D1, and cdk6/cyclin D2 were expressed in Sf9 cells. Protein kinase A (catalytic subunit, from bovine heart) and protein kinase C (mixed isozymes from rat brain) were obtained from commercial sources.
Protein kinase C and protein kinase A were assayed using a TCA precipitation assay with Histone H1 as a substrate. For protein kinase A, the final assay contained 50 mM Tris, 10 mM MgCl2, 1 mM dithiothreitol, pH 7.5, 12 μM adenosine triphosphate, 10% (v/v) dimethylsulfoxide (from compounds), 20 μg Histone H1, 2 μCi [γ-^32P] adenosine triphosphate, 0.2 U protein kinase A in a 100 μL assay. A protein kinase C assay contained 50 mM Tris, 10 mM MgCl2, 1 mM dithiothreitol, 0.8 mM CaCl2, pH 7.5, 5 μM adenosine triphosphate, 10% (v/v) dimethylsulfoxide (from compounds), 20 μg Histone H1, 2 μCi [γ-^32P] adenosine triphosphate, 0.01 U protein kinase C in a 50 μL assay. The assays were started by the addition of enzyme, allowed to react for 10 min at 30° C., and stopped by adding 0.4 volumes of 237 mM disodium ethylenediamine tetraacetate, 105 mM adenosine triphosphate, pH 8.0. […] The filters were washed ten times with 25% (w/v) trichloroacetic acid, and the amount of incorporated [^32P]phosphate was determined by adding 100 μl Microscint and scintillation counting.

T2 sequence (P11802 whole entry, species assumed): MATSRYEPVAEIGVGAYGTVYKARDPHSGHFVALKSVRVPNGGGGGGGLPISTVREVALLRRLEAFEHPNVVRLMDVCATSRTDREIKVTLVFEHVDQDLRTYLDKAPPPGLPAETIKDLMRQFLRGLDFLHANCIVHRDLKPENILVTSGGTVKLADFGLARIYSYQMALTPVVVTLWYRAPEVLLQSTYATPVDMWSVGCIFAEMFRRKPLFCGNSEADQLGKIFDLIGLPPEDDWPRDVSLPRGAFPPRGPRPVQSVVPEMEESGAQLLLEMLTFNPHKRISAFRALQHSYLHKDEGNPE
T2 sequence (P24385 whole entry partner, species assumed): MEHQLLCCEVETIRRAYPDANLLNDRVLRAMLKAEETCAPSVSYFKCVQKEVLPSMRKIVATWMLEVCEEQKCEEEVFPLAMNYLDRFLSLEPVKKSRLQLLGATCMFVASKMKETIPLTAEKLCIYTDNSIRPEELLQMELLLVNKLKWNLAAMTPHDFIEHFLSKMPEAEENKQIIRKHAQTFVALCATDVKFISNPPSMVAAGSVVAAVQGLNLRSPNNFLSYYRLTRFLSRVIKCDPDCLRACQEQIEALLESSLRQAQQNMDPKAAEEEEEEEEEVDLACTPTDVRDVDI

Row | IC50 ([4]; HCT-116, 24 h) [µM] | IC50 ([4]; HCT-116, 48 h) [µM] | IC50 [5] [µM] | Compound | Effect on cell cycle distribution (PI staining) [1] | IC50 [2] [µM] | IC50 [3] [µM]
1 |  |  |  | COCCN1CCN(Cc2ccc(-c3[nH]nc4c3C(=O)c3c(NC(=O)NN5CCOCC5)cccc3-4)cc2)CC1.Cl.Cl [Compound B16, N-[3-(4-{[4-(2-methoxyethyl)piperazinyl]methyl}phenyl)-4-oxoindeno[2,3-d]pyrazol-5-yl](morpholin-4-ylamino)carboxamide dihydrochloride] | Analogous results | < 0.01 | 
2 |  |  |  | CC(C)N1CCN(C(=O)COc2ccc(-c3[nH]nc4c3C(=O)c3c(NC(=O)NN5CCOCC5)cccc3-4)cc2)CC1.Cl [Compound A37] | cells are terminally arrested in G1 and G2, with evidence of apoptosis and endo-reduplication | < 0.1 | < 0.1
3 | < 0.1 | < 0.1 | > 10 | CC(C)c1nn(-c2c(Cl)cccc2Cl)c2nc(Cc3ccc(O)c(CN4CCN(C(C)C)CC4)c3)[nH]c(=O)c12 [Compound C] |  |  | 
